Laboratory results taken from patent US20040014215A1, “Synchronised arabidopsis cell suspensions and uses thereof” (priority 2000, published 2004).

Test system: Arabidopsis cell suspension culture MM1
Assay: Aphidicolin (4.16 μg/ml, 21.5 hrs) block/release of MM1: proportion of G1, S and G2 cells by flow cytometry
Assay type: cell-based, Arabidopsis thaliana
Procedure: Arabidopsis cell suspension culture MM1 (DSM 13563) was used for synchronisation experiments. The suspension culture was maintained by sub-culturing weekly 10 ml into 200 ml of fresh MSS-medium (MS-salt, 3% sucrose, 0.5 mg/l NAA, 0.05 mg/l kinetin) which is cultured in 500 ml narrow neck Erlenmeyer flasks, of which the opening is covered with double layer of aluminium foil and loosely covered with Saran wrap and which are placed on a GYROTORY® Shaker (New Brunswick Scientific). The cell suspension culture was grown under continuous light conditions (24 hrs a day); Philips lamps were used with the specification TLD HF 50W/840; light level is in average 1300 Lux and the cell suspension culture is rotated at 120 rpm at a temperature varying between 23-25° C. To arrest cells reversibly in late G1/early S-phase, cells were blocked with aphidicolin according to Nagata et al. 1992 (with slight modifications), 40 ml of an early stationary phase cell suspension culture was subcultured into 200 ml MSS-medium, 4.16 μg/ml aphidicolin was added to block cells at the end of G1/early S-phase, and the culture was incubated at 23° C., 120 rpm in the conditions as described above for MM1, for a period of 21.5 hrs. To remove aphidicolin, cells were washed through a nylon mesh (mesh size 47 μm) with 11 MSS-medium by vigorously shaking and resuspended in MSS-medium. The cells were vigorously shaken, for a washing time of about 14 min, and then centrifuged at 150Orpm for 1 min (387 rcf) with the brake switched off.
The level of synchronicity of the Arabidopsis cell suspension culture MM1 was analysed by flow cytometry. The cell pellet from 5 ml of cell suspension culture was frozen in liquid nitrogen. To analyse the DNA content, the High Resolution Kit for Plant ploidy analysis (Type P) (Partec, Cat. No. 06-5-4004) was used, containing solution A (to release cell nuclei) and solution B (to stain DNA with DAPI). A sample of the frozen cell pellet was transferred into a small petri-dish (5 cm diameter), 150 μl of solution A was added, and the sample was carefully chopped with vertical motion of a sharp razor blade. An additional 150 μl of solution A was added, the cell suspension pipetted up and down for several time before leaving for approximately 2 min at RT. The released cell nuclei were filtered through a 50 μm nylon mesh (Partec, CellTrics 50 μm, Cat. No. 06-4-2317) and 1 ml of solution B was added to the filtrate. On average 8200 particles were counted with a flow cytometer (PASIII; Partec GmbH, Germany), using HBO lamp excitation (Partec, mercury lamp HBO 100 long life, 100W) and detection of emission using a blue filter. Cell cycle phases were analysed using Multicycle for Windows (Phoenix Flow Systems, San Diego, Calif.). Flow cytometry results are not corrected for the mitotic cells (which are not measured by this method).

For `C[C@@]1(CO)[C@H](O)CC[C@@]2(C)[C@H]1CC[C@H]1C[C@@H]3C[C@@]12CC[C@]3(O)CO` [aphidicolin], the “G1 (%) MM1” value (0 h after aphidicolin removal) was 50.6%, the “G2 (%) MM1” value (0 h after aphidicolin removal) was 19.3% and the “S (%) MM1” value (0 h after aphidicolin removal) was 30.1%. The “G1 (%) MM1” value (1 h after aphidicolin removal) was 23.7%, the “G2 (%) MM1” value (1 h after aphidicolin removal) was 11.4% and the “S (%) MM1” value (1 h after aphidicolin removal) was 64.9%. For the same compound, the “G1 (%) MM1” value (2 h after aphidicolin removal) was 23.8%, the “G2 (%) MM1” value (2 h after aphidicolin removal) was 11.4% and the “S (%) MM1” value (2 h after aphidicolin removal) was 64.8%. For the same compound, the “G1 (%) MM1” value (3 h after aphidicolin removal) was 27.2%, the “G2 (%) MM1” value (3 h after aphidicolin removal) was 10.4% and the “S (%) MM1” value (3 h after aphidicolin removal) was 62.5%. The “G1 (%) MM1” value (4 h after aphidicolin removal) was 23.2%, the “G2 (%) MM1” value (4 h after aphidicolin removal) was 44.8% and the “S (%) MM1” value (4 h after aphidicolin removal) was 32%. The “G1 (%) MM1” value (5 h after aphidicolin removal) was 19.9%, the “G2 (%) MM1” value (5 h after aphidicolin removal) was 63.8% and the “S (%) MM1” value (5 h after aphidicolin removal) was 16.3%. The “G1 (%) MM1” value (6 h after aphidicolin removal) was 16.1%, the “G2 (%) MM1” value (6 h after aphidicolin removal) was 83.9% and the “S (%) MM1” value (6 h after aphidicolin removal) was 0%. The “G1 (%) MM1” value (7 h after aphidicolin removal) was 13.8%, the “G2 (%) MM1” value (7 h after aphidicolin removal) was 85.7% and the “S (%) MM1” value (7 h after aphidicolin removal) was 0.5%. For the same compound, the “G1 (%) MM1” value (8 h after aphidicolin removal) was 10.9%, the “G2 (%) MM1” value (8 h after aphidicolin removal) was 88.8% and the “S (%) MM1” value (8 h after aphidicolin removal) was 0.3%. The “G1 (%) MM1” value (9 h after aphidicolin removal) was 11.1%, the “G2 (%) MM1” value (9 h after aphidicolin removal) was 88.9% and the “S (%) MM1” value (9 h after aphidicolin removal) was 0%. The “G1 (%) MM1” value (10 h after aphidicolin removal) was 10.8%, the “G2 (%) MM1” value (10 h after aphidicolin removal) was 89.2% and the “S (%) MM1” value (10 h after aphidicolin removal) was 0%. For the same compound, the “G1 (%) MM1” value (11 h after aphidicolin removal) was 13.4%, the “G2 (%) MM1” value (11 h after aphidicolin removal) was 86.6% and the “S (%) MM1” value (11 h after aphidicolin removal) was 0%. For the same compound, the “G1 (%) MM1” value (12 h after aphidicolin removal) was 15.1%, the “G2 (%) MM1” value (12 h after aphidicolin removal) was 84.1% and the “S (%) MM1” value (12 h after aphidicolin removal) was 0.8%. For the same compound, the “G1 (%) MM1” value (13 h after aphidicolin removal) was 22.9%, the “G2 (%) MM1” value (13 h after aphidicolin removal) was 77.1% and the “S (%) MM1” value (13 h after aphidicolin removal) was 0%. For the same compound, the “G1 (%) MM1” value (14 h after aphidicolin removal) was 31.5%, the “G2 (%) MM1” value (14 h after aphidicolin removal) was 68.5% and the “S (%) MM1” value (14 h after aphidicolin removal) was 0%. For the same compound, the “G1 (%) MM1” value (15 h after aphidicolin removal) was 38.6%, the “G2 (%) MM1” value (15 h after aphidicolin removal) was 61.3% and the “S (%) MM1” value (15 h after aphidicolin removal) was 0.2%. For the same compound, the “G1 (%) MM1” value (16 h after aphidicolin removal) was 33.4%, the “G2 (%) MM1” value (16 h after aphidicolin removal) was 59.6% and the “S (%) MM1” value (16 h after aphidicolin removal) was 6.9%. The “G1 (%) MM1” value (17 h after aphidicolin removal) was 36.3%, the “G2 (%) MM1” value (17 h after aphidicolin removal) was 57.5% and the “S (%) MM1” value (17 h after aphidicolin removal) was 6.2%. For the same compound, the “G1 (%) MM1” value (18 h after aphidicolin removal) was 35.7%, the “G2 (%) MM1” value (18 h after aphidicolin removal) was 56.1% and the “S (%) MM1” value (18 h after aphidicolin removal) was 8.2%. The “G1 (%) MM1” value (19 h after aphidicolin removal) was 38.4%, the “G2 (%) MM1” value (19 h after aphidicolin removal) was 55.6% and the “S (%) MM1” value (19 h after aphidicolin removal) was 6%. The “G1 (%) MM1” value (20 h after aphidicolin removal) was 41.1%, the “G2 (%) MM1” value (20 h after aphidicolin removal) was 48.8% and the “S (%) MM1” value (20 h after aphidicolin removal) was 10%.
